*1 amine or outer side, *2 acyl side, *3 side chain or, on linkers, in order; H or OH if unused. Where a SMILES comes first, the peptide text is derived from it. Bridges are numbered along the chain shown (N, C = ends). Side-chain parts run from the residue outwards. [ ]: non-standard residue; d: D form. The star is where a group is joined. C20 diacid = O=C(O)CCCCCCCCCCCCCCCCCCC(=O)*; γGlu = O=C(O)[C@H](CCC(=O)[*:2])N[*:1]; AEEA = NCCOCCOCC(=O)O; Aib = CC(C)(N)C(=O)O
These compounds were tested against T1, human GLP-1 receptor (GLP-1R) (Homo sapiens, UniProt P43220) (assay: cAMP accumulation assay, CHO-K1 cells stably expressing human GLP-1R). Conditions: cAMP accumulation, mean pEC50, Table 10.
T1 construct: expressed in transfected cells
T1 sequence (P43220 24-463): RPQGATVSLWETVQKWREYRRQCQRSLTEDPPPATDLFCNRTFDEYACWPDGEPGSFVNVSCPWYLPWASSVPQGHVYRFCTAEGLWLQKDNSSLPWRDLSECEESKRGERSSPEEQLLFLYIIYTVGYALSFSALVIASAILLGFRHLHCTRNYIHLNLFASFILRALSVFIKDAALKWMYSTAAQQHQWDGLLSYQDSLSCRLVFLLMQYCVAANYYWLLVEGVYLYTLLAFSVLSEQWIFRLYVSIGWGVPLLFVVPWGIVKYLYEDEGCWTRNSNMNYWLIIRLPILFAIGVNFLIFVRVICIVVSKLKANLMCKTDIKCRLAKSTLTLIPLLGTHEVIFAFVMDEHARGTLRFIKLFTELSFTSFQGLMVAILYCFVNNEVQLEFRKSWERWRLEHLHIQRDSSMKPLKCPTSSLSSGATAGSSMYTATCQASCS
Format: cell-based
Experimental: In the presence of the non-specific cAMP/cGMP phosphodiesterase inhibitor, 3-isobutyl-1-methylxanthine (IBMX), accumulating cAMP can be measured in vitro using common detection methods. Thus, it is possible to estimate an in vitro potency (pEC50) for peptides activating each of these receptors using fit dose-response curves for cAMP accumulation.
CHO-K1 cells stably expressing human GLP-1R (Genebank accession #NM_002062) were grown in 90% F12-K media supplemented with 10% FBS and 250 μg/ml G418.
On day 1, CHO-K1 cells were plated at 1.5 million cells per T75 flask in 90% F12-K media supplemented with 10% FBS. On day 3 cells were transfected with 40 mcg of each expression plasmid using Lipofectamine 2000 transfection reagent. On day 5, cells were dispensed at 1000 cells per well in white 384-well OptiPlates in 5 mcL of assay buffer consisting of 1×HBSS, 5 mM HEPES, 0.5 mM IBMX, and 0.1% casein.
Peptides were serially diluted 4-fold in assay buffer to final concentrations ranging from 1×10^−9 M to 9.5×10^−16 M. Two assay controls consisting of 50 mcM forskolin (cAMP system maximum) or assay buffer only (cAMP system minimum) were also prepared. Five microliters of each peptide-concentration, or assay control, was added to triplicate wells and incubated for thirty minutes at room temperature. During this incubation step a 4× europium labelled cAMP tracer solution and a 4× Ulight®-anti-cAMP solution (consisting of an anti-cAMP monoclonal antibody labelled with Ulight™ dye) was prepared according to the manufacturer's protocol (PerkinElmer LANCE Ultra cAMP kit). Following this incubation, 5 mcL europium labelled cAMP and 5 mcL Ulight anti-cAMP antibody was added to each well. The plate was covered to prevent evaporation and incubated for 60 minutes at room temperature in the dark. Plates were read on an Envision fluorescent plate reader (PerkinElmer).
Test values were first normalized to the system maximum and system minimum averaged values in Excel using the formula: (test value−system min average)/(system max average -system min average)*100. Normalized test values represent a baseline corrected percentage of the system maximum cAMP response induced by forskolin. Data from up to 3 replicate tests were analyzed for each peptide. Potency values were estimated using GraphPad Prism software (v7.04) by fitting data to a 4-parameter logistic curve model: Y=Bottom+(Top−Bottom)/(1+10^((LogEC50−X))). The Hill slope was constrained to 1.0. EC50 values were converted to pEC50 values using the formula: pEC50=−Log (EC50).
For `CC(C)C[C@H](NC(=O)[C@H](Cc1ccc(O)cc1)NC(=O)[C@H](CCCCN)NC(=O)[C@H](CO)NC(=O)[C@H](Cc1ccc(O)cc1)NC(=O)[C@H](CC(=O)O)NC(=O)[C@H](CO)NC(=O)[C@@H](NC(=O)[C@H](Cc1ccccc1)NC(=O)[C@@H](NC(=O)CNC(=O)[C@H](Cc1c[nH]cn1)NC(=O)[C@H](CO)NC(=O)[C@@H](N)Cc1ccc(O)cc1)[C@@H](C)O)[C@@H](C)O)C(=O)N[C@@H](CC(=O)O)C(=O)N[C@@H](CCCCNC(=O)CC[C@H](NC(=O)CC[C@H](NC(=O)COCCOCCNC(=O)CCCCCCCCCCCCCCCCCCC(=O)O)C(=O)O)C(=O)O)C(=O)N[C@@H](CCCCN)C(=O)N[C@@H](Cc1ccc(O)cc1)C(=O)N[C@@H](C)C(=O)N[C@@H](CCC(N)=O)C(=O)N[C@@H](CCC(=O)O)C(=O)N[C@@H](Cc1ccccc1)C(=O)N[C@H](C(=O)NC(C)(C)C(=O)N[C@@H](Cc1c[nH]c2ccccc12)C(=O)N[C@@H](CC(C)C)C(=O)N[C@@H](CCC(=O)O)C(=O)N[C@@H](CCC(=O)O)C(=O)N[C@@H](CCC(=O)O)C(=O)N1CCC[C@H]1C(=O)N[C@@H](CO)C(=O)N[C@@H](CO)C(=O)NCC(=O)N[C@@H](C)C(=O)N1CCC[C@H]1C(=O)N1CCC[C@H]1C(=O)N1CCC[C@H]1C(=O)N[C@@H](CO)C(=O)O)C(C)C` [Compound A15] (H-YSHGTFTSDYSKYLDK([γGlu-γGlu-AEEA-C20 diacid])KYAQEFV[Aib]WLEEEPSSGAPPPS-OH), the EC50 was over 1 nM.
For `CC(C)C[C@H](NC(=O)[C@H](Cc1ccc(O)cc1)NC(=O)[C@H](CCCCN)NC(=O)[C@H](CO)NC(=O)[C@H](Cc1ccc(O)cc1)NC(=O)[C@H](CC(=O)O)NC(=O)[C@H](CO)NC(=O)[C@@H](NC(=O)[C@H](Cc1ccccc1)NC(=O)[C@@H](NC(=O)CNC(=O)[C@H](Cc1c[nH]cn1)NC(=O)[C@H](CO)NC(=O)[C@@H](N)Cc1ccc(O)cc1)[C@@H](C)O)[C@@H](C)O)C(=O)N[C@@H](CC(=O)O)C(=O)N[C@@H](CCCCNC(=O)CC[C@H](NC(=O)CC[C@H](NC(=O)COCCOCCNC(=O)CCCCCCCCCCCCCCCCCCC(=O)O)C(=O)O)C(=O)O)C(=O)N[C@@H](CCCCN)C(=O)N[C@@H](Cc1ccc(O)cc1)C(=O)N[C@@H](C)C(=O)N[C@@H](CCC(N)=O)C(=O)N[C@@H](CCC(=O)O)C(=O)N[C@@H](Cc1ccccc1)C(=O)N[C@H](C(=O)NC(C)(C)C(=O)N[C@@H](Cc1c[nH]c2ccccc12)C(=O)N[C@@H](CC(C)C)C(=O)N[C@@H](CCC(=O)O)C(=O)N[C@@H](CC(N)=O)C(=O)N[C@@H](CCC(=O)O)C(=O)N1CCC[C@H]1C(=O)N[C@@H](CO)C(=O)N[C@@H](CO)C(=O)NCC(=O)N[C@@H](C)C(=O)N1CCC[C@H]1C(=O)N1CCC[C@H]1C(=O)N1CCC[C@H]1C(=O)N[C@@H](CO)C(=O)O)C(C)C` [Compound A16] (H-YSHGTFTSDYSKYLDK([γGlu-γGlu-AEEA-C20 diacid])KYAQEFV[Aib]WLENEPSSGAPPPS-OH), the EC50 was over 1 nM.
Compound `CC(C)C[C@H](NC(=O)[C@H](Cc1ccc(O)cc1)NC(=O)[C@H](CCCCN)NC(=O)[C@H](CO)NC(=O)[C@H](Cc1ccc(O)cc1)NC(=O)[C@H](CC(=O)O)NC(=O)[C@H](CO)NC(=O)[C@@H](NC(=O)[C@H](Cc1ccccc1)NC(=O)[C@@H](NC(=O)CNC(=O)[C@H](Cc1c[nH]cn1)NC(=O)[C@H](CO)NC(=O)[C@@H](N)Cc1ccc(O)cc1)[C@@H](C)O)[C@@H](C)O)C(=O)N[C@@H](CC(=O)O)C(=O)N[C@@H](CCCCNC(=O)CC[C@H](NC(=O)CC[C@H](NC(=O)COCCOCCNC(=O)CCCCCCCCCCCCCCCCCCC(=O)O)C(=O)O)C(=O)O)C(=O)N[C@@H](CCCCN)C(=O)N[C@@H](Cc1ccc(O)cc1)C(=O)N[C@@H](C)C(=O)N[C@@H](CCC(N)=O)C(=O)N[C@@H](CCC(=O)O)C(=O)N[C@@H](Cc1ccccc1)C(=O)N[C@H](C(=O)NC(C)(C)C(=O)N[C@@H](Cc1c[nH]c2ccccc12)C(=O)N[C@@H](CC(C)C)C(=O)N[C@@H](CCC(=O)O)C(=O)N[C@@H](CCC(N)=O)C(=O)N[C@@H](CCC(=O)O)C(=O)N1CCC[C@H]1C(=O)N[C@@H](CO)C(=O)N[C@@H](CO)C(=O)NCC(=O)N[C@@H](C)C(=O)N1CCC[C@H]1C(=O)N1CCC[C@H]1C(=O)N1CCC[C@H]1C(=O)N[C@@H](CO)C(=O)O)C(C)C` [Compound A17] (H-YSHGTFTSDYSKYLDK([γGlu-γGlu-AEEA-C20 diacid])KYAQEFV[Aib]WLEQEPSSGAPPPS-OH; N-terminus assumed) has an EC50 of over 1 nM.
For `CC(C)C[C@H](NC(=O)[C@H](Cc1ccc(O)cc1)NC(=O)[C@H](CCCCN)NC(=O)[C@H](CO)NC(=O)[C@H](Cc1ccc(O)cc1)NC(=O)[C@H](CC(=O)O)NC(=O)[C@H](CO)NC(=O)[C@@H](NC(=O)[C@H](Cc1ccccc1)NC(=O)[C@@H](NC(=O)CNC(=O)[C@H](Cc1c[nH]cn1)NC(=O)[C@H](CO)NC(=O)[C@@H](N)Cc1ccc(O)cc1)[C@@H](C)O)[C@@H](C)O)C(=O)N[C@@H](CC(=O)O)C(=O)N[C@@H](CCCCNC(=O)CC[C@H](NC(=O)CC[C@H](NC(=O)COCCOCCNC(=O)CCCCCCCCCCCCCCCCCCC(=O)O)C(=O)O)C(=O)O)C(=O)N[C@@H](CCCCN)C(=O)N[C@@H](Cc1ccc(O)cc1)C(=O)N[C@@H](C)C(=O)N[C@@H](CCC(N)=O)C(=O)N[C@@H](CCC(=O)O)C(=O)N[C@@H](Cc1ccccc1)C(=O)N[C@H](C(=O)NC(C)(C)C(=O)N[C@@H](Cc1c[nH]c2ccccc12)C(=O)N[C@@H](CC(C)C)C(=O)N[C@@H](CCC(=O)O)C(=O)N[C@@H](CO)C(=O)N[C@@H](CCC(=O)O)C(=O)N1CCC[C@H]1C(=O)N[C@@H](CO)C(=O)N[C@@H](CO)C(=O)NCC(=O)N[C@@H](C)C(=O)N1CCC[C@H]1C(=O)N1CCC[C@H]1C(=O)N1CCC[C@H]1C(=O)N[C@@H](CO)C(=O)O)C(C)C` [Compound A19] (H-YSHGTFTSDYSKYLDK([γGlu-γGlu-AEEA-C20 diacid])KYAQEFV[Aib]WLESEPSSGAPPPS-OH), the EC50 was over 1 nM.
Work on `CC(C)C[C@H](NC(=O)[C@H](Cc1ccc(O)cc1)NC(=O)[C@H](CCCCN)NC(=O)[C@H](CO)NC(=O)[C@H](Cc1ccc(O)cc1)NC(=O)[C@H](CC(=O)O)NC(=O)[C@H](CO)NC(=O)[C@@H](NC(=O)[C@H](Cc1ccccc1)NC(=O)[C@@H](NC(=O)CNC(=O)[C@H](Cc1c[nH]cn1)NC(=O)[C@H](CO)NC(=O)[C@@H](N)Cc1ccc(O)cc1)[C@@H](C)O)[C@@H](C)O)C(=O)N[C@@H](CC(=O)O)C(=O)N[C@@H](CCCCNC(=O)CC[C@H](NC(=O)CC[C@H](NC(=O)COCCOCCNC(=O)CCCCCCCCCCCCCCCCCCC(=O)O)C(=O)O)C(=O)O)C(=O)N[C@@H](CCCCN)C(=O)N[C@@H](Cc1ccc(O)cc1)C(=O)N[C@@H](C)C(=O)N[C@@H](CCC(N)=O)C(=O)N[C@@H](CCC(=O)O)C(=O)N[C@@H](Cc1ccccc1)C(=O)N[C@H](C(=O)NC(C)(C)C(=O)N[C@@H](Cc1c[nH]c2ccccc12)C(=O)N[C@@H](CC(C)C)C(=O)N[C@@H](CCC(=O)O)C(=O)N[C@@H](CCCCN)C(=O)N[C@@H](CCC(=O)O)C(=O)N1CCC[C@H]1C(=O)N[C@@H](CO)C(=O)N[C@@H](CO)C(=O)NCC(=O)N[C@@H](C)C(=O)N1CCC[C@H]1C(=O)N1CCC[C@H]1C(=O)N1CCC[C@H]1C(=O)N[C@@H](CO)C(=O)O)C(C)C` [Compound A20] (H-YSHGTFTSDYSKYLDK([γGlu-γGlu-AEEA-C20 diacid])KYAQEFV[Aib]WLEKEPSSGAPPPS-OH; N-terminus assumed) yielded an EC50 of over 1 nM.
With `CC(C)C[C@H](NC(=O)[C@H](Cc1ccc(O)cc1)NC(=O)[C@H](CCCCN)NC(=O)[C@H](CO)NC(=O)[C@H](Cc1ccc(O)cc1)NC(=O)[C@H](CC(=O)O)NC(=O)[C@H](CO)NC(=O)[C@@H](NC(=O)[C@H](Cc1ccccc1)NC(=O)[C@@H](NC(=O)CNC(=O)[C@H](Cc1c[nH]cn1)NC(=O)[C@H](CO)NC(=O)[C@@H](N)Cc1ccc(O)cc1)[C@@H](C)O)[C@@H](C)O)C(=O)N[C@@H](CC(=O)O)C(=O)N[C@@H](CCCCNC(=O)CC[C@H](NC(=O)CC[C@H](NC(=O)COCCOCCNC(=O)CCCCCCCCCCCCCCCCCCC(=O)O)C(=O)O)C(=O)O)C(=O)N[C@@H](CCCCN)C(=O)N[C@@H](Cc1ccc(O)cc1)C(=O)N[C@@H](C)C(=O)N[C@H]1CCC(=O)NCCCC[C@@H](C(=O)N[C@@H](Cc2c[nH]c3ccccc23)C(=O)N[C@@H](CC(C)C)C(=O)N[C@@H](CCC(=O)O)C(=O)N[C@@H](CC(=O)O)C(=O)N[C@@H](CCC(=O)O)C(=O)N2CCC[C@H]2C(=O)N[C@@H](CO)C(=O)N[C@@H](CO)C(=O)NCC(=O)N[C@@H](C)C(=O)N2CCC[C@H]2C(=O)N2CCC[C@H]2C(=O)N2CCC[C@H]2C(=O)N[C@@H](CO)C(=O)O)NC(=O)[C@H](C(C)C)NC(=O)[C@H](Cc2ccccc2)NC(=O)[C@H](CCCCN)NC1=O` [Compound A21] (H-YSHGTFTSDYSKYLDK([γGlu-γGlu-AEEA-C20 diacid])KYAEKFVKWLEDEPSSGAPPPS-OH; lactam 20-24; N-terminus assumed) the EC50 was over 1 nM.

— patent US20240228572A1 (i2o Therapeutics, Inc., priority 2020, published 2024)
